Values belong to the compound of their own block, whether it stands above or below them.
Assays:
[1] = test system: human cervix carcinoma HeLa cells; test: MTT assay, HeLa; type: cell-based; details: 72-h incubation
Protocol: (§6) Solutions of the platinum compounds were freshly prepared in sterile PBS before use and their concentrations quantitated by atomic absorption spectroscopy. Cells were seeded on a 96-well plate (1200 cells per well for cancer cells and 1800 cells per well for the normal lung fibroblasts) in 100 μL RPMI or DMEM media, and incubated for 24 h. […] The cells were then treated with 20 μL of 3-(4,5-dimethylthiazol-2-yl)-2,5-diphenyltetrazolium bromide (MTT) (5 mg/mL in PBS) and incubated for 4 h. The medium was removed, 100 μL of DMSO was added to the cells, and the absorbance of the purple formazan was recorded at 560 nm using a BioTek Synergy HT multi-detection microplate plate reader. Each condition was performed in triplicate and three independent experiments were carried out for each cell line.
(§7) Human prostate carcinoma (PC3) and human cervix carcinoma (HeLa) cells were obtained from the ATCC. The human lung carcinoma cell line A549 was kindly provided by David E. Root (Whitehead Institute for Biomedical Research). Cells were incubated at 37° C. in 5% CO2 and grown in RPMI (PC3) or DMEM (A549 and HeLa) medium supplemented with 10% fetal bovine serum and 1% penicillin/streptomycin. Cells were passaged every 3 to 4 days and restarted from the frozen stock upon reaching passage number 20.
(§8) Solutions of the platinum agents were freshly prepared in sterile PBS before use and the platinum content was quantitated by AAS. Cells were seeded on 96 well plates (1200 cells per well) in 100 μL RPMI or DMEM media\ and incubated for 24 hours. […] The cells were then treated with 20 μL of 3-(4,5-dimethylthiazol-2-yl)-2,5-diphenyltetrazolium bromide (MTT) (5 mg/mL in PBS) and incubated for 4 h. The medium was removed, 100 μL of DMSO were added to the cells, and the absorbance of the purple formazan was recorded at 570 nm using a BioTek Synergy HT multi-detection microplate plate reader. For each cell line, three independent experiments were carried out in triplicate.

NTera2 = test: MTT assay, NTera2; type: cell-based, human; details: Table 3, NTera2 Testis, 72-h incubation
Protocol: as §6

[2] = test system: human breast carcinoma MCF7; test: MTT assay, MCF7; type: cell-based; details: Table 3, MCF7 Breast, 72-h incubation
Protocol: (§1) Human colon carcinoma HT29, human breast carcinoma MCF7, human bone sarcoma U2OS, human prostate carcinoma PC3, and human cervix carcinoma HeLa cells were obtained from the ATCC. A2780/CP70 cisplatin-resistant human ovarian cancer cells were kindly provided by Dr. Stephen B. Howell (Moores UCSD Cancer Center) and the human lung carcinoma cell lines A549 and normal lung fibroblast MRC5 by David E. Root (Whitehead Institute for Biomedical Research). Cells were incubated at 37° C. in 5% CO2 and grown in RPMI (HT29, A2780/CP70, and PC3) or DMEM (A549, MRC5, HeLa, MCF7, and U2OS) medium supplemented with 10% fetal bovine serum and 1% penicillin/streptomycin. Cells were passed every 3 to 4 days and restarted from a frozen stock upon reaching pass number 20.
(§2) Solutions of the platinum compounds were freshly prepared in sterile PBS before use and their concentrations quantitated by atomic absorption spectroscopy. […] The cells were then treated with 20 μL of 3-(4,5-dimethylthiazol-2-yl)-2,5-diphenyltetrazolium bromide (MTT) (5 mg/mL in PBS) and incubated for 4 h. The medium was removed, 100 μL of DMSO was added to the cells, and the absorbance of the purple formazan was recorded at 560 nm using a BioTek Synergy HT multi-detection microplate plate reader. Each condition was performed in triplicate and three independent experiments were carried out for each cell line.

[3] = test system: human lung carcinoma A549; test: MTT assay, A549; type: cell-based
Protocol: as §6, §7, §8

human bone sarcoma U2OS = test: MTT assay, U2OS; type: cell-based; details: 72-h incubation
Protocol: as §1, §2

[4] = test system: human prostate carcinoma PC3; test: MTT assay, PC3; type: cell-based; details: Table 3, PC3 Prostate, 72-h incubation
Protocol: as §6, §7, §8

[5] = test system: Human colon carcinoma HT29; test: MTT assay, HT29; type: cell-based
Protocol: as §1, §2

[6] = D2O at 37° C.
Protocol: (§9) The 1-D ^1H NMR kinetic studies were performed in duplicate as a standard time-arrayed experiment using a variable delayed list. Incremented 1-D spectra were processed in exactly the same way and signals of aromatic amine ligands from platinum compounds were integrated. The relative concentrations of the platinum compound at each time point were calculated from peak integrals. […] Reactions of platinum compounds with 5′-dGMP were performed in NMR tubes containing 2 mM of the platinum compounds and 32 mM (16 equiv) of 5′-dGMP in 10 mM PBS buffer, D2O, pH*7.4 at 37° C.

[7] = equimolar N-AcMet, 37° C.
Protocol: NMR spectra were collected on a Varian 500 spectrometer equipped with a triple-resonance broadband inverse probe and a variable temperature unit. The 1-D ^1H NMR kinetic studies were performed in duplicate as a standard time-arrayed experiment using a variable delayed list. Incremented 1-D spectra were processed in exactly the same way and signals of aromatic amine ligands from platinum compounds were integrated. The relative concentrations of the platinum compound at each time point were calculated from peak integrals. […] Reactions of platinum compounds with N-AcMet were performed in NMR tubes containing 2 mM of the Pt complex and 2 mM (1 equiv) of N-AcMet in 10 mM PBS buffer, D2O, pH*7.4 at 37° C. […] Deuterated 3-(trimethylsilyl)propionic acid sodium salt (TMS-PFASS) was used as an internal standard. The pH* values are the measured pH values without correction for the effect of deuterium on the electrode.

[8] = test system: normal lung fibroblast MRC5; test: MTT assay, MRC5; type: cell-based, human
Protocol: as §1, §2

[9] = test system: GLuc expression in A549 cells; test: Transcription assay, globally platinated pGLuc, A549; type: cell-based, human; details: for transcription level (normalized against unplatinated plasmid): Pt/DNA ratio of […] for phenanthriplatin
Protocol: (§3) Transfection of transcription probes into A549 and HT29 cells with the pGLuc plasmid was carried out using liposomal transfecting agents. Determination of expression levels was tested by Luciferase assays monitored by a luminometer (J. Am. Chem. Soc. 2010, 132, 7429-7435). A549 cells were plated in 96-well plates at 2,000 cells/well and HT29 cells were plated in 96-well plates at 6,000 cells/well. After 48 h incubation (at ˜30% confluence), cells were transfected with 50 ng of platinated plasmids in 25 μL Opti-MEM and 0.125 μL Lipofectamine 2000, and subsequently 50 μL of antibiotics-free DMEM supplemented with 10% FBS. After 2 h, the cells were washed with medium and 100 μL of fresh medium was added. The experiment was carried out in quadruplicate.
(§4) GLuc activity was monitored using a luminescence plate reader (Synergy 2, BioTek, Winooski, Vt., USA). A 10 μL volume of medium at different time points (12, 24, 36, 48, 60 h) was transferred into opaque white 96-well plates, and 25 μL of GLuc assay solution (10 μM colelenterazine (NanoLight Technologies, Pinetop, Ariz., USA) in 2.5 mM acidified methanol (100 mM HCl), buffer (10 mM Tris-HCl pH 7.8, 1 mM EDTA, 0.6 M NaCl)) was added by the automatic injector of the instrument.
(§5) In another embodiment, A549 or HT29 cells were transfected using the platinated transcription probes, and transcription levels were investigated by determining GLuc expression as measured by […] following addition of coelenterazine as a substrate for the exported enzyme. The emission intensities were normalized against unplatinated plasmids as a control. Transcription profiles were obtained by plotting normalized levels of GLuc expression against platination levels (Pt/plasmid ratio) at five different time points. […] An increase in D0 value at different time points represents restoration of transcription.

pGLuc plasmid = test: Platination of pGLuc plasmid; type: biochemical
Protocol: The resulting mixtures were dialyzed (molecular weight cut-off 3.5 kDa) against ddH2O overnight at 4° C. with five changes of ddH2O. The rb values (bound Pt/nucleotide) were determined by UV/Vis and atomic absorption spectroscopy.
In one embodiment, the ratio of bound platinum per plasmid was determined by measuring the Pt concentration by atomic absorption spectroscopy and the DNA concentration by UV/Vis spectroscopy.

[10] = test system: GLuc expression in HT29 cells; test: Transcription assay, globally platinated pGLuc, HT29; type: cell-based, human; details: for transcription level (normalized against unplatinated plasmid): Pt/DNA ratio of […] for phenanthriplatin
Protocol: as §3, §4, §5

calf thymus DNA = test: Ethidium bromide DNA-binding competition, Scatchard analysis; parameters: key: competitive (type A); non-competitive (type D); both (type B); No inhibition of ethidium binding is labeled as type C
Description: Using this approach, it is possible to determine whether the inhibition of ethidium binding is competitive (type A), non-competitive (type D), or both (type B). No inhibition of ethidium binding is labeled as type C.

5′-dGMP = details: 16 equiv 5′-dGMP, 37° C., PBS pH 7.4
Protocol: as §9

[11] = Table 3, A549 Lung, 72-h incubation
[12] = Table 4, A549 human lung carcinoma, 72 h incubation
[13] = Table 3, HT29 Colorectal, 72-h incubation

Compound: O=C1[O][Pt]2([NH][C@@H]3CCCC[C@H]3[NH]2)[O]C1=O [oxaliplatin]
IC50 ([1]; Table 3, HeLa Cervix): 11.8 ± 1.4 µM | IC50 (NTera2): 1.12 ± 0.08 µM | IC50 [2]: 17.9 ± 2.7 µM | IC50 [3, 11]: 6.79 ± 0.26 µM | IC50 [3, 12]: 10.5 ± 0.18 µM | IC50 (human bone sarcoma U2OS; Table 3, U2OS Bone): 8.67 ± 0.59 µM | IC50 [4]: 13.2 ± 4 µM | IC50 [5, 13]: 1.81 ± 1.15 µM

Compound: N.N.O=[N+]([O-])[O-].[Cl][Pt+].c1ccncc1 [pyriplatin, cis-[Pt(NH3)2(pyridine)Cl]NO3]
equilibrium constant for aquation [6]: approximately 0.05 | time after which aquation reaction is complete (equilibrium with aqua analogue) [6]: 1 h | reaction with N-AcMet more rapid than that for phenanthriplatin [7]: > 10 fold | second-order rate constant, reaction with N-AcMet [7]: 0.156 M⁻¹ s⁻¹ | IC50 ([1]; Table 3, HeLa Cervix): 31.3 ± 2.8 µM | IC50 ([1]; Table 5, HeLa): 31.3 ± 2.8 µM | IC50 (NTera2): 5.16 ± 0.96 µM | IC50 ([8]; Table 4, MRC5 normal lung fibroblast, 72 h incubation): 92.1 ± 9.9 µM | IC50 ([8]; Table 5, MRC5, 72-h incubation): 92.1 ± 9.9 µM | transcription level (normalized against unplatinated plasmid) ([9]; A549, 12 h): 55.2% | D0 (Pt lesions per plasmid required to reduce transcription levels to 37% of control) ([9]; A549, 12 h after transfection): 39.2 Pt/plasmid | D0 (Pt lesions per plasmid required to reduce transcription levels to 37% of control) ([9]; A549, 24 h after transfection): 58.5 Pt/plasmid | D0 (Pt lesions per plasmid required to reduce transcription levels to 37% of control) ([9]; A549, 36 h after transfection): 68.8 Pt/plasmid | D0 (Pt lesions per plasmid required to reduce transcription levels to 37% of control) ([9]; A549, 48 h after transfection): 85.2 Pt/plasmid | transcription level (normalized against unplatinated plasmid) ([9]; A549, 60 h): 66.8% | D0 (Pt lesions per plasmid required to reduce transcription levels to 37% of control) ([9]; A549, 60 h after transfection): 89.1 Pt/plasmid | Pt per plasmid (pGLuc plasmid; rf 0.0016, 16 h at 37° C.): 13.33 Pt per plasmid | rb (bound Pt/nucleotide) (pGLuc plasmid; rf 0.0016, 16 h at 37° C.): 0.0017 | Pt per plasmid (pGLuc plasmid; rf 0.004, 16 h at 37° C.): 31.19 Pt per plasmid | rb (bound Pt/nucleotide) (pGLuc plasmid; rf 0.004, 16 h at 37° C.): 0.0039 | Pt per plasmid (pGLuc plasmid; rf 0.0076, 16 h at 37° C.): 57.96 Pt per plasmid | rb (bound Pt/nucleotide) (pGLuc plasmid; rf 0.0076, 16 h at 37° C.): 0.0073 | Pt per plasmid (pGLuc plasmid; rf 0.015, 16 h at 37° C.): 117.31 Pt per plasmid | rb (bound Pt/nucleotide) (pGLuc plasmid; rf 0.015, 16 h at 37° C.): 0.0015 | IC50 [2]: 109 ± 10 µM | IC50 [3, 11]: 52.1 ± 2.3 µM | IC50 [3, 12]: 52.1 ± 2.25 µM | IC50 ([3]; Table 5, A549, 72-h incubation): 52.1 ± 2.3 µM | IC50 (human bone sarcoma U2OS; Table 3, U2OS Bone): 78.9 ± 6.7 µM | IC50 (human bone sarcoma U2OS; Table 5, U2OS): 78.9 ± 6.7 µM | transcription level (normalized against unplatinated plasmid) ([10]; HT29, 12 h): 55.3% | D0 (Pt lesions per plasmid required to reduce transcription levels to 37% of control) ([10]; HT29, 12 h after transfection): 35.6 Pt/plasmid | D0 (Pt lesions per plasmid required to reduce transcription levels to 37% of control) ([10]; HT29, 24 h after transfection): 40.5 Pt/plasmid | D0 (Pt lesions per plasmid required to reduce transcription levels to 37% of control) ([10]; HT29, 36 h after transfection): 42.9 Pt/plasmid | D0 (Pt lesions per plasmid required to reduce transcription levels to 37% of control) ([10]; HT29, 48 h after transfection): 44.5 Pt/plasmid | transcription level (normalized against unplatinated plasmid) ([10]; HT29, 60 h): 75.2% | D0 (Pt lesions per plasmid required to reduce transcription levels to 37% of control) ([10]; HT29, 60 h after transfection): 49.3 Pt/plasmid | IC50 [4]: 47.9 ± 9.2 µM | type of inhibition of ethidium binding (Scatchard) (calf thymus DNA; 12-h incubation period): type C | type of inhibition of ethidium binding (Scatchard) (calf thymus DNA; 1 min incubation period): type C | pseudo-first order rate constant, reaction with 5′-dGMP (5′-dGMP): 0.29 h⁻¹ | IC50 [5, 13]: 144 ± 10 µM | IC50 ([5]; Table 5, HT29, 72-h incubation): 144 ± 10 µM

Compound: cis-[Pt(NH3)2 (1-methylimidazole)-Cl]NO3
IC50 ([8]; Table 5, MRC5, 72-h incubation): 40.5 ± 1.1 µM | IC50 ([3]; Table 5, A549, 72-h incubation): 62 ± 0.8 µM | IC50 ([5]; Table 5, HT29, 72-h incubation): 53.4 ± 8.5 µM

Now from value to compound, other results behind:

IC50 ([3]; Table 5, A549, 72-h incubation): 50.6 ± 1.7 µM | IC50 ([5]; Table 5, HT29, 72-h incubation): 63.8 ± 1.9 µM
Compound: cis-[Pt(NH3)2 (2-methylpyridine)Cl]NO3
IC50 ([8]; Table 5, MRC5, 72-h incubation): 58.9 ± 4.2 µM

IC50 ([1]; Table 5, HeLa): 12.2 ± 0.8 µM | IC50 ([3]; Table 5, A549, 72-h incubation): 8.11 ± 0.68 µM | IC50 (human bone sarcoma U2OS; Table 5, U2OS): 23.5 ± 2.7 µM | IC50 ([5]; Table 5, HT29, 72-h incubation): 38 ± 4.5 µM
Compound: cis-[Pt(NH3)2(quinoline)Cl]NO3
IC50 ([8]; Table 5, MRC5, 72-h incubation): 23.5 ± 1.6 µM

Source: patent publication US9034862B2, “Compositions and methods for the treatment of cancer” (priority 2011, dated 2015)
